Entries after “also recorded” stand apart in the source; their conditions may differ.
How the values were obtained:
[1] = test system: CD1 male mice; assay: In vivo liver function tests and serum creatinine; set-up: species or system mouse; conditions: 600 mg/kg; for liver function tests (ALT, AST, ALP) in serum: serum after 12 h
[2] = test system: CD1 male mice; assay: Liver histology and immunohistochemistry; format: in vivo, mouse; conditions: for H&E-stained liver sections / apoptotic nuclei (TUNEL) / hepatic tight junctions (ZO-1 staining): 600 mg/kg; for H&E-stained liver sections: CD1 mice
[3] = test system: primary human hepatocytes (PHH); assay: LDH release in primary human hepatocytes; conditions: 500 or 1000 μM, 3 h, 6 h, 12 h, in comparison to ApAP
[4] = test system: CD1 mice; assay: NAPQI detection in serum by LC-MS/MS; format: in vivo, mouse; conditions: 600 mg/kg, ip or po
[5] = test system: male Sprague-Dawley rats; assay: Von Frey; format: in vivo, rat; conditions: baseline dropped to about 20 after CFA
[6] = test system: male CD1 mice; conditions: 600 mg/kg, n = 20 mice per group
[7] = test system: HepaRG; conditions: HepaRG, 50, 100, 1000 and 5000 μM, 6 h, 12 h, 24 h
[8] = test system: primary human hepatocytes (PHH); assay: Reduced glutathione; format: cell-based; conditions: 500 or 1000 μM, 3 h, 6 h, 12 h
[9] = biological target: CYP3A4 (Homo sapiens, UniProt P08684); conditions: titration curves for 2D6 and 3A4; isozyme not given
Chain of CYP3A4 (P08684 whole entry): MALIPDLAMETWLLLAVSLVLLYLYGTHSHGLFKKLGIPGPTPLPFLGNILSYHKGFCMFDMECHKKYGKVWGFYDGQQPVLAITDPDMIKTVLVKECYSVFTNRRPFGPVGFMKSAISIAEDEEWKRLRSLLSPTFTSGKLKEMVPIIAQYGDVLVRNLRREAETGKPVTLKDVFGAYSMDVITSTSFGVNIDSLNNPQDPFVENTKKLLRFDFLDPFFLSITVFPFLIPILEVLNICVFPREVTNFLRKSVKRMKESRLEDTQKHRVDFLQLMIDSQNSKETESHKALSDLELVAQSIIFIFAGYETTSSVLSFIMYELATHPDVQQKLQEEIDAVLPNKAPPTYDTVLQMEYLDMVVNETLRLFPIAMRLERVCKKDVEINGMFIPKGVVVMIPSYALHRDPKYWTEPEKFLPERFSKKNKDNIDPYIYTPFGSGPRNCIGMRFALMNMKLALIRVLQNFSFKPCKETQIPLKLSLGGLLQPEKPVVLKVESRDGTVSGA

[10] = biological target: CYP2D6 (Homo sapiens, UniProt P10635); assay: Vivid CYP450 screening assay, CYP2D6; format: biochemical
Chain of CYP2D6 (P10635 whole entry): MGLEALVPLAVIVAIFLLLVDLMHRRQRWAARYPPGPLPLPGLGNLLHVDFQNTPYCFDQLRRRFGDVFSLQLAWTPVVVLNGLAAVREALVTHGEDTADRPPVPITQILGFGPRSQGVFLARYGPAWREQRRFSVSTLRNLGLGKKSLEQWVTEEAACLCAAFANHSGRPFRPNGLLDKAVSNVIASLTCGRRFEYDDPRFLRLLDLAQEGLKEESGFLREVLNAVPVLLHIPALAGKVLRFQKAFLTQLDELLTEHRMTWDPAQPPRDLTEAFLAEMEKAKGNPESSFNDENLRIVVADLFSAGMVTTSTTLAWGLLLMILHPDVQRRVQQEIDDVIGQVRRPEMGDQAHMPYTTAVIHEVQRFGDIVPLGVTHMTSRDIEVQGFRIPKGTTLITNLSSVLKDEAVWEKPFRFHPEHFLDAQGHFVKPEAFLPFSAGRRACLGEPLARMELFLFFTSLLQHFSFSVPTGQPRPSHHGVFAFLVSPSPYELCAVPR

[11] = test system: male CD1 mice; assay: Baker's yeast-induced hyperthermia; format: in vivo, mouse; conditions: 80 mg/kg po, n = 10, 2 h after drug (6-h time point)
[12] = cited from earlier work

Row | SMILES | liver function tests (ALT, AST, ALP) in serum [1] | H&E-stained liver sections [2] | apoptotic nuclei (TUNEL) ([2]; mice) | hepatic tight junctions (ZO-1 staining) ([2]; mice) | LDH release [3] | NAPQI generation in serum [4] | latency for withdrawal of the CFA-injected left hind foot [5] | mice alive after 48 h [6] [mice] | hepatotoxicity (LDH release, reduced GSH), dose and time-dependent effect [7] | amount of reduced GSH [8] | concentrations at which inhibition is noted [9] [nM] | inhibitory effects on CYP2D6 [10] | serum creatinine (renal function) [1] | nitrotyrosine in liver (marker of mitochondrial free radical formation) ([2]; toxic dose, mice) | antipyretic effect [11] | hepatotoxicity ([12]; compared with ApAP) | in vivo analgesic profile ([12]; compared with ApAP) | in vivo metabolism ([12]; into the main metabolite 2) | antipyresis ([12]; stated in abstract, no reference given)
1 | CNC(=O)c1ccccc1S(=O)(=O)NCC(=O)Nc1ccc(O)cc1 [3b, 2-[[2-(4-Hydroxyanilino)-2-oxo-ethyl]sulfamoyl]-N-methylbenzamide] | marked reduction in LFTs | healthy liver architecture was maintained | but not in 3b and 3r | preserved | consistently decreased | did not result in the formation of NAPQI | increased | 20 | lack of hepatotoxicity | consistently increased | – | – | – | – | – | – | – | – | –
2 | O=C(CNS(=O)(=O)c1ccccc1C(=O)NCCc1ccc(O)c(O)c1)Nc1ccc(O)cc1 [3r, N-[2-(3,4-dihydroxyphenil)ethyl]-2-[[2-(4-hydroxyanilino)-2-oxo-ethyl]sulfamoyl] benzamide] | marked reduction in LFTs | healthy liver architecture was maintained | but not in 3b and 3r | preserved | consistently decreased | did not result in the formation of NAPQI | increased | 20 | lack of hepatotoxicity | consistently increased | > 1000 | only marginal inhibitory effects | – | – | – | – | – | – | –
3 | CC(=O)Nc1ccc(O)cc1 [ApAP, N-Acetyl-4-aminophenol, reference compound] | Increased levels; also recorded: significantly high | centrilobular hepatic hemorrhagic necrosis | A large number of apoptotic nuclei | Loss of hepatic tight junctions | – | detected NAPQI generation | increased | – | – | – | – | – | moderately elevated; also recorded: significantly high | large amounts of nitrotyrosine | effectively reduced fever | – | – | – | –
4 | O=C(CN1C(=O)c2ccccc2S1(=O)=O)Nc1ccc(O)cc1 [compound 1, N-(4-hydroxyphenyl)-2-(1,1,3-trioxo-1,2-benzothiazol-2-yl)acetamide] | – | – | – | – | – | – | – | – | – | – | – | – | – | – | – | considerably decreased | maintained the in vivo analgesic profile of ApAP | quickly metabolized in vivo | not antipyretic

Reference: paper PMC7324353 (European Journal of Medicinal Chemistry, 2020)
